Results from patent US20150141460A1, “Anti-inflammatory Compositions” (Cambridge Enterprise Limited, priority 2007, published 2015).
Read-outs that look alike come from different tables or passages of the source.

Assays:
[1] = Distribution of unchanged compound into tissues and urine 24 hrs after a single dose in rat; assay type: in vivo; conditions: for Urine (ng/ml) unchanged parent compound: 24 hrs after a single oral dose 3 mg/kg in 1% CMC
Method: (§1) Urine was collected from rats exposed to a single oral dose (3 mg/kg in 1% CMC) of each compound over a 24 hour period in metabolic cages. The pooled urine sample was then subjected to full scan mass spectral analysis, using the same LC-MS conditions as described in example 1 above. Further MS-MS analysis of the product ions was then performed, and likely fragmentations/re-arrangements assigned from the publicly available Metabolite ID database.
To provide a quantitative estimate of the degree of metabolism suffered by each of the compounds tested, the amount of unchanged parent compound in urine was measured using the same validated LC-MS assay described in example 1, using (S)-3-(2′,2′-dimethylpropanoylamino)-caprolactam as an internal standard. In addition, the level of compounds in various target tissues was also determined.

[2] = Identification of the primary metabolites in pooled rat urine by LC-MS-MS; assay type: in vivo; conditions: single oral dose 3 mg/kg in 1% CMC, pooled urine over 24 hrs, qualitative
Method: as §1
For the major metabolites, the assigned structures were confirmed by synthesis of authentic samples, using methods well known in the art, which were subject to LC-MS-MS analysis under the same conditions as the urine samples.
Note that metabolite ID studies provide only qualitative estimates of the relative amounts of the different metabolites present, and separately validated assays with appropriate internal standards would be required to quantitate each metabolite species.

[3] = tested on: MCP-1 induced migration of THP-1 cells; experiment: ChemoTx transwell migration assay, MCP-1 induced migration of THP-1 cells; assay type: cell-based; conditions: Homo sapiens
Method: FIGS. 6A-6F show representative dose response curves for the inhibition of chemokine-induced leukocyte migration in vitro, for each of the five compounds (I′) to (V) in the ChemoTx™ transwell migration assay. In each experiment, THP-1 cells were induced to migrate using a maximally effective dose of the chemokine MCP-1 in the presence or absence of various doses (from 10 pM to 1 μM) of each compound. An appropriate vehicle control was used in each experiment. The percentage inhibition of MCP-1 induced migration (calculated as the number of cells migrated in the presence of MCP-1 minus the number of cells migrated with MCP-1 omitted from the lower chamber) at each concentration of each test compound is shown as the mean of triplicate determinations, with whiskers representing SEM. The ED50 was estimated by linear interpolation of the presented graphs. The Y-axis of each graph represents the percentage inhibition of MCP-1 induced migration; the X-axis represents the concentration of test compound present in units of nM (0.01-1000).
In principle, this assay consists of two chambers separated by a porous membrane. The chemoattractant is placed in the lower compartment and the cells are placed in the upper compartment. After incubation for a period at 37° C. the cells move towards the chemoattractant, and the number of cells in the lower compartment is proportional to the chemoattractant activity (relative to a series of controls).
The THP-1 cell line (European Cell Culture Collection) were used as the leukocyte cell population.
First, the cell suspension to be placed in the upper compartment is prepared. The THP-1 cells are pelleted by centrifugation (770×g; 4 mins) and washed with Geys Balanced Salt Solution with 1 mg/ml BSA (GBSS+BSA). This wash is then repeated, and the cells repelleted before being resuspended in a small volume of GBSS+BSA for counting, for example using a standard haemocytometer.
The volume of GBSS+BSA is then adjusted depending on the number of cells present so that the cells are at final density of 4.45×10^6 cells per ml of GBSS+BSA. This ensures that there are […] THP-1 cells in each 25 μl of the solution that will be placed in the upper chamber of the plate.
To test a single compound for its ability to inhibit chemokine induced migration, it is necessary to prepare two lots of cells. The suspension of THP-1 cells at 4.45×10^6 cells/ml is divided into two pots. To one pot the inhibitor under test is added at an appropriate final concentration, in an appropriate vehicle (for example at 1 μM in not more than 1% DMSO). To the second pot an equal volume of GBSS+BSA plus vehicle as appropriate (e.g. not more than 1% DMSO) is added to act as a control.
Next, the chemoattractant solution to be placed in the lower compartment is prepared. […]

[4] = THP-1 cell line, maximal dose of chemoattractant, Table 6, read-out: ED50 MCP-1 induced migration
[5] = THP-1 cells, Table 5, read-out: Functional ED50 versus MCP-1

Compound | Urine (ng/ml) unchanged parent compound [1] | unchanged parent compound recovered in urine, % of the injected dose ([1]; single oral dose 3 mg/kg in 1% CMC, 24 hrs) | major metabolites / route of metabolism detected in urine [2] | EC50 [3, 4] | EC50 [3, 5]
CC(C)(C)C(=O)N[C@H]1CCCNC1=O [Compound (I′), (S)-3-(2′,2′-dimethylpropanoylamino)-tetrahydropyridin-2-one] | 24567 ng/mL | more than 60% | no significant metabolites | 0.05 nM | 0.05 nM
O=C1NCCCC[C@@H]1NC(=O)C12CC3CC(CC(O)(C3)C1)C2 [Compound (V), 3-(3′-hydroxyadamantyl-1-carbonylamino)-caprolactam] | 16300 ng/mL |  | the glucuronidated compound was the major metabolite | 0.12 nM | 0.12 nM
